Assay results: patent US11207312B2, “Metallo-beta-lactamase inhibitors and methods of use thereof” (priority 2017, dated 2021)

What was measured:
NDM-1 = NDM-1 (Klebsiella pneumoniae, UniProt C7C422); assay: biochemical; format: biochemical; conditions: CCF2-FA fluorescence assay, 2 hours at 25° C.
Summary of the method: (§1)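 Enzyme (NDM-1 1 pM, IMP-1 2 pM, VIM-1 30 pM final) and 1.25 μM CCF2-FA incubated with inhibitor (20 to 0.00063 μM) for 2 h at 25° C in 100 mM KH2PO4 pH 7, 0.005% Tween-20, 10 μM ZnSO4. Fluorescence read at ex 405/em 460 nm; IC50 by 4-parameter fit.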

IMP-1 = IMP-1 (Serratia marcescens, UniProt P52699); assay: biochemical; conditions: CCF2-FA fluorescence assay, 2 hours at 25° C.; read-out: IMP1 IC50
Sequence of IMP-1 (P52699 whole entry, looked up, species assumed): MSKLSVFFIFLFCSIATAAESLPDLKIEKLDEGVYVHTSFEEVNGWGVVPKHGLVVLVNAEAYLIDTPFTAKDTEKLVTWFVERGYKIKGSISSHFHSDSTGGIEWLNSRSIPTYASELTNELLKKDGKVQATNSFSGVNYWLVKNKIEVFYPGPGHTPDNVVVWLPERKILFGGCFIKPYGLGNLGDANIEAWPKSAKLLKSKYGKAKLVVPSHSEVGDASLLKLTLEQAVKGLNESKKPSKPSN
Summary of the method: as §1

VIM-1 = VIM-1 (Pseudomonas aeruginosa (strain ATCC 15692 / DSM 22644 / CIP 104116 / JCM 14847 / LMG 12228 / 1C / PRS 101 / PAO1), UniProt A0A0F7KYQ8); assay: biochemical; conditions: CCF2-FA fluorescence assay, 2 hours at 25° C.; read-out: VIM1 IC50
Summary of the method: as §1

VIM-2 = VIM-2 (Escherichia coli, UniProt Q5U7L7); assay: biochemical; conditions: CCF2-FA fluorescence assay; read-out: VIM2 IC50
[1] = system: Escherichia coli expressing NDM-1 (CLB30016); format: cell-based; conditions: with imipenem 1 μg/ml; 95% inhibition of bacterial growth
Summary of the method: (§2)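 Imipenem 1 μg/ml + inhibitor titration in cation-adjusted MHB (1.1× stock medium); overnight-cultured colonies suspended in saline, diluted 1:100. 35 °C, 22–24 h; absorbance read. MITC95 = lowest compound conc giving 95% growth inhibition.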

[2] = system: Klebsiella pneumoniae expressing VIM-1 (IHMA599644); format: cell-based; conditions: with imipenem 1 μg/ml; 95% inhibition of bacterial growth
Summary of the method: as §2

[3] = system: Serratia marcescens expressing IMP-1 (CL5741); format: cell-based; conditions: with imipenem 1 μg/ml; 95% inhibition of bacterial growth
Summary of the method: as §2

[4] = system: P. aeruginosa MB9798 (efflux+, IMP-1 plasmid); conditions: for MB9798 MITC95 P. aeruginosa uM Efflux WT: efflux + (MB9798) strain, imipenem at 2 μg/mL, in the presence of a class A, C, D serine β-lactamase inhibitor closely related to relebactam; for Efflux ratio: fold difference between efflux+ (MB9798) and efflux− (MB9799) strains
Summary of the method: (§3)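 PAO1-derived isogenic pair (oprD+, inducible AmpC), efflux+ MB5919 or efflux− MB5890 parent, carrying an electroporated IMP-1 plasmid from a clinical isolate. Microbroth MIC with fixed imipenem and/or ceftazidime (usually CLSI breakpoint) plus fixed class A/C inhibitor; MBL inhibitor serially titrated, concentration restoring susceptibility recorded.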

[5] = system: P. aeruginosa MB9799 (efflux-, IMP-1 plasmid); format: cell-based, Pseudomonas aeruginosa; conditions: efflux − (MB9799) strain; imipenem at 2 μg/mL; in the presence of a class A, C, D serine β-lactamase inhibitor closely related to relebactam
Summary of the method: as §3

Sequence of NDM-1 (C7C422 whole entry, looked up, species assumed): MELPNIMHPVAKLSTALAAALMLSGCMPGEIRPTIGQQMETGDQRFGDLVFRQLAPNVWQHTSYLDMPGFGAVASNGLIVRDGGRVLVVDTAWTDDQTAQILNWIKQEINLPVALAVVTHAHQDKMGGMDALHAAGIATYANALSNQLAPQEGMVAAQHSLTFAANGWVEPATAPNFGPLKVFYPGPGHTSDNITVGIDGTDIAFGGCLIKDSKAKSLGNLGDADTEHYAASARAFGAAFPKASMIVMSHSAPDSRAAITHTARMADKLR

SMILES	IC50 (NDM-1) [nM]	IC50 (IMP-1) [nM]	IC50 (VIM-1) [nM]	IC50 (VIM-2) [nM]	CLB30016 E. coli MITC95 NDM [1] [µM]	IHMA599644 K. pneumoniae MITC95 VIM [2] [µM]	CL5741 S. marcescens MITC95 IMP [3] [µM]	MB9798 MITC95 P. aeruginosa uM Efflux WT [4] [µM]	Efflux ratio [4]	MB9799 MITC95 P. aeruginosa uM Efflux Mutant [5] [µM]
NS(=O)(=O)c1c(S(=O)(=O)C2CNC2)ccc(N2CC3C(CO)C3C2)c1-c1nnn[nH]1 (stereo not shown) [Example 62, 6-(azetidin-3-ylsulfonyl)-3-[6-(hydroxymethyl)-3-azabicyclo[3.1.0]hex-3-yl]-2-(1H-tetrazol-5-yl)benzenesulfonamide]	2.86	4.89	3.07	10.5	1.56	6.25	3.13	50.00	31.99	1.56
NS(=O)(=O)c1c(S(=O)(=O)N[C@@H]2CCNC2)ccc(N2CCC(O)CC2)c1-c1nnn[nH]1 [Example 63, 4-(4-hydroxypiperidin-1-yl)-N1-[(3R)-pyrrolidin-3-yl]-3-(1H-tetrazol-5-yl)benzene-1,2-disulfonamide]	0.31	0.47	0.16	0.66	3.13	6.25	3.13	1.56	1.00	1.56
NS(=O)(=O)c1c(S(=O)(=O)N[C@@H]2CCNC2)ccc(NCCN2CCOCC2)c1-c1nnn[nH]1 [Example 64, 4-[(2-morpholin-4-ylethyl)amino]-N1-[(3R)-pyrrolidin-3-yl]-3-(1H-tetrazol-5-yl)benzene-1,2-disulfonamide]	5.51	3.26	1.62	8.19	1.56	6.25	1.56	25.00	15.99	1.56
CN1CCN(c2ccc(S(=O)(=O)N[C@@H]3CCNC3)c(S(N)(=O)=O)c2-c2nnn[nH]2)CC1=O [Example 65, 4-(4-methyl-3-oxopiperazin-1-yl)-N1-[(3R)-pyrrolidin-3-yl]-3-(1H-tetrazol-5-yl)benzene-1,2-disulfonamide]	1.28	2.26	0.22	1	3.13	6.25	3.13	3.13	2.00	1.56
NS(=O)(=O)c1c(S(=O)(=O)N[C@@H]2CCNC2)ccc(NC2CCOCC2)c1-c1nnn[nH]1 [Example 66, N1-[(3R)-pyrrolidin-3-yl]-4-(tetrahydro-2H-pyran-4-ylamino)-3-(1H-tetrazol-5-yl)benzene-1,2-disulfonamide]	0.62	4.48	1.76	3.7	6.25	6.25	3.13	25.00	15.99	1.56
CN(C)[C@H]1CCN(c2ccc(S(=O)(=O)N[C@@H]3CCNC3)c(S(N)(=O)=O)c2-c2nnn[nH]2)C1 [Example 67, 4-[(3S)-3-(dimethylamino)pyrrolidin-1-yl]-N1-[(3R)-pyrrolidin-3-yl]-3-(1H-tetrazol-5-yl)benzene-1,2-disulfonamide]	85	60.7	4.32	18.5	1.56	1.56	3.13	12.50	8.00	1.56
CN(C)[C@@H]1CCN(c2ccc(S(=O)(=O)N[C@@H]3CCNC3)c(S(N)(=O)=O)c2-c2nnn[nH]2)C1 [Example 68, 4-[(3R)-3-(dimethylamino)pyrrolidin-1-yl]-N1-[(3R)-pyrrolidin-3-yl]-3-(1H-tetrazol-5-yl)benzene-1,2-disulfonamide]	22.1	16.2	2.11	17.8	0.78	1.56	1.56	12.50	8.00	1.56
NS(=O)(=O)c1c(S(=O)(=O)N[C@@H]2CCNC2)ccc(N2CCCN(CCO)CC2)c1-c1nnn[nH]1 [Example 69, 4-[4-(2-hydroxyethyl)-1,4-diazepan-1-yl]-N1-[(3R)-pyrrolidin-3-yl]-3-(1H-tetrazol-5-yl)benzene-1,2-disulfonamide]	16.2	29.6	1.6	13.3	0.78	1.56	3.13	12.50	4.00	3.13
NS(=O)(=O)c1c(S(=O)(=O)N[C@@H]2CCNC2)ccc(N2CC[C@@H](CO)C2)c1-c1nnn[nH]1 [Example 70, 4-[(3R)-3-(hydroxymethyl)pyrrolidin-1-yl]-N1-[(3R)-pyrrolidin-3-yl]-3-(1H-tetrazol-5-yl)benzene-1,2-disulfonamide]	0.45	0.51	0.57	1.25	3.91	7.81	3.91	2.34	1.20	1.95
CC1(O)CCN(c2ccc(S(=O)(=O)N[C@@H]3CCNC3)c(S(N)(=O)=O)c2-c2nnn[nH]2)CC1 [Example 71, 4-(4-hydroxy-4-methylpiperidin-1-yl)-N1-[(3R)-pyrrolidin-3-yl]-3-(1H-tetrazol-5-yl)benzene-1,2-disulfonamide]	0.26	0.7	0.53	1.69	3.13	6.25	3.13	1.56	1.00	1.56
C[N+](C)(C)CCCCNc1ccc(S(=O)(=O)N[C@@H]2CCNC2)c(S(N)(=O)=O)c1-c1nnn[nH]1 [Example 72, N,N,N-trimethyl-4-({4-[(3R)-pyrrolidin-3-ylsulfamoyl]-3-sulfamoyl-2-(1H-tetrazol-5-yl)phenyl}amino)butan-1-aminium]	3.31	9.32	2.01	6.04	1.56	6.25	3.13	25.00	8.00	3.13
NC1CCN(c2ccc(S(=O)(=O)N[C@@H]3CCNC3)c(S(N)(=O)=O)c2-c2nnn[nH]2)CC1 [Example 73, 4-(4-aminopiperidin-1-yl)-N1-[(3R)-pyrrolidin-3-yl]-3-(1H-tetrazol-5-yl)benzene-1,2-disulfonamide]	9.84	16.6	0.31	16.1	0.78	1.56	1.56	1.56	2.00	0.78
CNCC1CCN(c2ccc(S(=O)(=O)N[C@@H]3CCNC3)c(S(N)(=O)=O)c2-c2nnn[nH]2)CC1 [Example 74, 4-{4-[(methylamino)methyl]piperidin-1-yl}-N1-[(3R)-pyrrolidin-3-yl]-3-(1H-tetrazol-5-yl)benzene-1,2-disulfonamide]	3	6.8	0.45	6.86	0.78	3.13	1.56	1.56	2.00	0.78
